Source: US20090111786A1, “Compounds that Prevent Macrophage Apoptosis and Uses Thereof” (priority 2004, published 2009)

How the values were obtained:
[1] = system: bone marrow-derived macrophages (BMDMs); assay: Macrophage apoptosis on M-CSF withdrawal, sub-G1 DNA content by flow cytometry (PI); type: cell-based, mouse; details: for increase in cells with sub-G1 DNA content (apoptosis-induced DNA fragmentation): BMDMs pre-incubated with agonist, then cultured without M-CSF
[2] = system: LPS-dependent gene expression in macrophages; assay: Microarray analysis of LPS (TLR4)-induced apoptotic gene program; details: 9cRA alone
Procedure: Microarray analysis: In one embodiment, large numbers of genes were assayed for relative expression levels using one or more of an Affymetrix U74A array and a Codelink Uniset 1 mouse array. Total RNA was isolated and purified using Trizol reagent (Invitrogen Life Technologies, Carlsbad, Calif.) and RNeasy columns (Qiagen, Valencia, Calif.). cRNA was generated from 10 μg total RNA using Superscript (Invitrogen) and the High Yield RNA transcription labeling kit (Enzo Biochem. Inc., Farmingdale, N.Y.). Duplicate samples of fragmented cRNA were hybridized to Affymetrix U74A arrays or Codelink Uniset 1 mouse arrays according to manufacture's instruction. Data was analyzed with Microarray Suite (Affymetrix, Santa Clara, Calif.) and Genespring software (Silicongenetics, Redwood City, Calif.).
An additional series of microarray experiments was performed to evaluate the influence of LXR activation on regulation of the apoptotic program induced by engagement of TLR4 (FIG. 4). Macrophages were incubated with GW3965 or vehicle for 16 h and then treated with LPS for 6 hours.
Macrophages were incubated with the LXR agonist GW3965 (1 μM) or vehicle for 16 h prior to treatment with LPS (100 ng/ml) for 6 h. Total RNA was subjected to microarray analysis using Codelink Mouse Uniset 1 microarrays.

macrophages = assay: Cycloheximide-induced general caspase activity, fluorimetric; type: cell-based, mouse; details: macrophages treated with CHX 10 μg/ml, 5 h
[3] = system: WT and LXR−/− macrophages; assay: Cycloheximide-induced macrophage apoptosis, DNA fragmentation; type: cell-based, mouse; details: for apoptotic process induced by CHX (DNA fragmentation): preincubation 24 h
[4] = system: AIM (Apoptosis Inhibitor expressed by Macrophages) mRNA; assay: AIM mRNA expression by Northern blotting; details: differentiated macrophages; T1317: at 12 to 24 h of stimulation; EC 10 μM

Row | SMILES | increase in cells with sub-G1 DNA content (apoptosis-induced DNA fragmentation) [1] | AIM mRNA levels [4] | also measured
1 | CC1=C(/C=C/C(C)=C\C=C\C(C)=C\C(=O)O)C(C)(C)CCC1 [9cRA, 9-cis retinoic acid] | little effect | – | effect on the action of the LXR-specific agonists on sub-G1 content ([1]; 9cRA combined with T1317, GW3965 or EC, M-CSF withdrawal): markedly enhanced; inhibitory activity on LPS-dependent gene expression [2]: very little inhibitory activity
2 | C[C@@H]1C[C@@H]([C@H](O)CC2CC(=O)NC(=O)C2)C(=O)[C@@H](C)C1 [CHX, cycloheximide] | – | – | caspase activation (macrophages): increased; DNA fragmentation ([3]; macrophages treated with CHX 10 μg/ml, 6 h): increased
3 | C[C@H](CC[C@@H]1OC1(C)C)[C@H]1CC[C@H]2[C@@H]3CC=C4C[C@@H](O)CC[C@]4(C)[C@H]3CC[C@]12C [EC, 24(S),25-epoxycholesterol] | attenuated | induced | –
4 | O=C(O)Cc1cccc(OCCCN(Cc2cccc(C(F)(F)F)c2Cl)CC(c2ccccc2)c2ccccc2)c1 [GW3965] | attenuated | – | –
5 | O=S(=O)(c1ccccc1)N(CC(F)(F)F)c1ccc(C(O)(C(F)(F)F)C(F)(F)F)cc1 [T1317] | attenuated | highly induced | apoptotic process induced by CHX (DNA fragmentation) ([3]; LXR-deficient macrophages): not; apoptotic process induced by CHX (DNA fragmentation) ([3]; […]): attenuated
